Some test systems named below: MCF7 breast; OVCAR-4 ovarian; OVCAR-5 ovarian; HCT-15 colon; MOLT-4 leukemia; K-562 leukemia; SK-MEL-5 melanoma; DU-145 prostate; LOX IMVI melanoma; A498 renal.
What all share (experiment): growth of human tumour cells (NCI), 48 h

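Following 48 hours of exposure in 96-well plates, responses at five concentrations were used to interpolate endpoints linearly. Here, GI50 denotes the concentration required for 50% inhibition of growth. TGI: concentration producing complete growth inhibition.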 Where only a bound is given, the exact number is not on record here.

Consider `CC(=O)/C=C/C1=C(c2csc3ccccc23)c2ccccc2CC1`, for which the GI50 was 21.8 µM in the assay on MCF7 breast; 17.8 µM in the assay on OVCAR-4 ovarian; 33.8 µM with OVCAR-5 ovarian; 23.5 µM with HCT-15 colon; 15.6 µM in the assay on MOLT-4 leukemia; 18.8 µM with K-562 leukemia. Moreover, the GI50 is 13.4 µM in the assay on SK-MEL-5 melanoma, 29.4 µM in the assay on DU-145 prostate, 16.9 µM with LOX IMVI melanoma and 22.4 µM in the assay with A498 renal. In addition, the TGI was 87.8 µM in the assay on MCF7 breast; above 100 µM in the assay on OVCAR-4 ovarian; above 100 µM in the assay with OVCAR-5 ovarian; above 100 µM in the assay on HCT-15 colon; above 100 µM in the assay on MOLT-4 leukemia; above 100 µM in the assay on K-562 leukemia. Also, the TGI in the assay on SK-MEL-5 melanoma is 28.8 µM; in the assay with DU-145 prostate it was above 100 µM; with LOX IMVI melanoma, 48.4 µM; in the assay with A498 renal it was 50.2 µM.

As to `COc1ccc(/C=C2\SC(=Nc3ccccc3)NC2=O)cc1`, the GI50 with MCF7 breast is 2.68 µM; in the assay on OVCAR-4 ovarian it was 10 µM; in the assay with OVCAR-5 ovarian it was 12.5 µM; in the assay with HCT-15 colon it was 2.73 µM; in the assay on MOLT-4 leukemia it was 4.77 µM; with K-562 leukemia it was 2.31 µM. For the same compound, the GI50 with SK-MEL-5 melanoma was 7.63 µM; in the assay on DU-145 prostate, 11.4 µM; in the assay on LOX IMVI melanoma, 5.5 µM; in the assay on A498 renal it was 1.08 µM. In addition, the TGI with MCF7 breast is 42.1 µM; in the assay with OVCAR-4 ovarian, 25.7 µM; with OVCAR-5 ovarian, above 100 µM; with HCT-15 colon, above 100 µM; with MOLT-4 leukemia, above 100 µM; with K-562 leukemia, above 100 µM. Also, the TGI in the assay on SK-MEL-5 melanoma came to 30.5 µM; in the assay on DU-145 prostate, 71.5 µM; with LOX IMVI melanoma, 19.6 µM; in the assay with A498 renal, 7.34 µM.

Consider `CO/N=C(\C([O-])=N\[n+]1cnn(CC(=O)OC(C)(C)C)c1)c1csc(NC(c2ccccc2)(c2ccccc2)c2ccccc2)n1`, for which the TGI in the assay on MCF7 breast, in the assay with OVCAR-4 ovarian, with OVCAR-5 ovarian, in the assay with HCT-15 colon, in the assay with MOLT-4 leukemia and in the assay on K-562 leukemia was above 10 µM in each case. The TGI in the assay with SK-MEL-5 melanoma, with DU-145 prostate, in the assay with LOX IMVI melanoma and with A498 renal was above 10 µM each time.

Take `CC(C)=CC(=O)N[C@H]1CC[C@]2(C)C3CC[C@]4(C)C(C(C)N(C)C)=CCC4C3CCC2[C@H]1O` (stereo not given in full): the GI50 in the assay with MCF7 breast is 3.06 µM; in the assay on OVCAR-4 ovarian it was 5.88 µM; with OVCAR-5 ovarian it was 10.9 µM; in the assay on HCT-15 colon, 1.55 µM; with MOLT-4 leukemia, 2.81 µM; in the assay on K-562 leukemia, 1.58 µM. The GI50 was 1.48 µM in the assay with SK-MEL-5 melanoma, 8.68 µM with DU-145 prostate, 1.62 µM in the assay with LOX IMVI melanoma and 3.82 µM in the assay with A498 renal. In addition, the TGI in the assay on MCF7 breast is 13.6 µM; with OVCAR-4 ovarian it was 20.8 µM; in the assay with OVCAR-5 ovarian, 25.2 µM; in the assay with HCT-15 colon it was 4.2 µM; in the assay with MOLT-4 leukemia, 11.4 µM; with K-562 leukemia it was 4.52 µM. In addition, the TGI in the assay with SK-MEL-5 melanoma came out at 2.95 µM; in the assay on DU-145 prostate, 21.4 µM; in the assay with LOX IMVI melanoma, 3.49 µM; in the assay on A498 renal, 16.6 µM.

As to `Cc1c(Cl)cccc1NC(=O)/C=C/c1ccccc1`, the TGI in the assay on MCF7 breast, in the assay on OVCAR-4 ovarian, in the assay on OVCAR-5 ovarian, in the assay with HCT-15 colon, with MOLT-4 leukemia and in the assay with K-562 leukemia was above 100 µM each time. Moreover, the TGI in the assay on SK-MEL-5 melanoma, with DU-145 prostate, in the assay with LOX IMVI melanoma and in the assay on A498 renal was above 100 µM each time.

In the case of `COc1ccc(NC(=O)c2sc3nc(C)c(C(=O)/C=C/c4cccc(OC)c4)cc3c2N)cc1`, the GI50 in the assay with MCF7 breast was 0.339 µM; in the assay on OVCAR-4 ovarian, 4.01 µM; in the assay with OVCAR-5 ovarian, 1.62 µM; in the assay with HCT-15 colon, 1.01 µM; with MOLT-4 leukemia, 1.5 µM; in the assay with K-562 leukemia, 1.43 µM. In addition, the GI50 with SK-MEL-5 melanoma is 3.55 µM; with DU-145 prostate, 1.64 µM; in the assay on LOX IMVI melanoma it was 0.906 µM; with A498 renal, 1.08 µM. For the same compound, the TGI in the assay on MCF7 breast was above 50 µM; with OVCAR-4 ovarian it was 17.8 µM; in the assay on OVCAR-5 ovarian, 9 µM; in the assay with HCT-15 colon, 2.42 µM; in the assay on MOLT-4 leukemia, above 50 µM; with K-562 leukemia it was above 50 µM. Also, the TGI was 10.7 µM with SK-MEL-5 melanoma, 5.66 µM with DU-145 prostate, 1.71 µM in the assay on LOX IMVI melanoma and 3.22 µM in the assay on A498 renal.

On to `Cn1c(-c2ccccc2)c(/C=C/C2=[N+](C)c3ccccc3C2(C)C)c2ccccc21`, for which the GI50 in the assay with MCF7 breast was 0.817 µM; in the assay on OVCAR-4 ovarian it was 1.81 µM; in the assay with OVCAR-5 ovarian, 3.96 µM; in the assay on HCT-15 colon, 3.92 µM; in the assay on MOLT-4 leukemia, 1.06 µM; in the assay with K-562 leukemia, 0.128 µM. In addition, the GI50 is 0.363 µM with SK-MEL-5 melanoma, 1.87 µM with DU-145 prostate, 0.527 µM in the assay on LOX IMVI melanoma and 1.71 µM in the assay on A498 renal. The TGI came out at 10.8 µM in the assay on MCF7 breast; 14.4 µM with OVCAR-4 ovarian; 20 µM in the assay with OVCAR-5 ovarian; 22.1 µM with HCT-15 colon; 4.06 µM with MOLT-4 leukemia; 5.3 µM in the assay with K-562 leukemia. Also, the TGI amounted to 1.35 µM in the assay with SK-MEL-5 melanoma, 12.7 µM in the assay on DU-145 prostate, 3.25 µM with LOX IMVI melanoma and 10.9 µM in the assay with A498 renal.

With `C=C1SC(=Nc2ccccc2Cl)N(C(=O)c2sc3ccccc3c2Cl)C12CCCCC2`, the GI50 is 3.95 µM with MCF7 breast; 7.75 µM with OVCAR-4 ovarian; 35.9 µM with OVCAR-5 ovarian; 5.45 µM with HCT-15 colon; 4.72 µM in the assay with MOLT-4 leukemia; 4.14 µM in the assay with K-562 leukemia. Further, the GI50 was 8.2 µM in the assay with SK-MEL-5 melanoma, 6.2 µM with DU-145 prostate, 21.8 µM with LOX IMVI melanoma and 2.77 µM in the assay on A498 renal. Also, the TGI in the assay with MCF7 breast, in the assay on OVCAR-4 ovarian, in the assay on OVCAR-5 ovarian, in the assay with HCT-15 colon, in the assay with MOLT-4 leukemia and in the assay on K-562 leukemia was above 100 µM throughout. Further, the TGI was above 100 µM in the assay with SK-MEL-5 melanoma, above 100 µM in the assay on DU-145 prostate, above 100 µM with LOX IMVI melanoma and 74.6 µM in the assay with A498 renal.

For the origin of these results see PubChem BioAssay (NCI).
